Reference: paper PMC5218480 (PLoS ONE, 2017)

Test system: MV-4-11 cells
Assay: Gene expression microarray analysis (Affymetrix PrimeView) and GSEA
Assay type: cell-based, human
Design: RFU PODN (11730768_x_at) / Fold change /veh PODN (11730768_x_at) / RFU LINC00158 (11744669_a_at) / Fold change /veh LINC00158 (11744669_a_at) / RFU DUSP10 (11751237_a_at) / Fold change /veh DUSP10 (11751237_a_at) / RFU ID3 (11757404_x_at) / Fold change /veh ID3 (11757404_x_at) / RFU PLEKHG5 (11737974_s_at) / Fold change /veh PLEKHG5 (11737974_s_at) / RFU LRRC4B (11730491_at) / Fold change /veh LRRC4B (11730491_at) / RFU GIMAP4 (11747438_a_at) / Fold change /veh GIMAP4 (11747438_a_at) / RFU KRT8 (11758183_x_at) / Fold change /veh KRT8 (11758183_x_at) / RFU CNN1 (11734310_a_at) / Fold change /veh CNN1 (11734310_a_at) / RFU VPS37D (11726825_at) / Fold change /veh VPS37D (11726825_at) / RFU C10orf10 (11716522_x_at) / Fold change /veh C10orf10 (11716522_x_at) / RFU KIR2DL2 /// KIR2DL4 /// KIR2DL5A /// KIR2DL5B /// KIR2DS1 /// KIR2DS2 /// KIR2DS3 /// KIR2DS4 /// KIR3DL3 /// KIR3DL3 /// KIR3DS1 (11738374_at) / Fold change /veh KIR2DL2 /// KIR2DL4 /// KIR2DL5A /// KIR2DL5B /// KIR2DS1 /// KIR2DS2 /// KIR2DS3 /// KIR2DS4 /// KIR3DL3 /// KIR3DL3 /// KIR3DS1 (11738374_at) / RFU C1QL1 (11718748_at) / Fold change /veh C1QL1 (11718748_at) / RFU TMPRSS4 (11747572_a_at) / Fold change /veh TMPRSS4 (11747572_a_at) / RFU HAMP (11756126_x_at) / Fold change /veh HAMP (11756126_x_at) / RFU RNFT2 (11725882_a_at) / Fold change /veh RNFT2 (11725882_a_at) / RFU NR4A2 (11747474_a_at) / Fold change /veh NR4A2 (11747474_a_at) / RFU ABCC12 (11746883_a_at) / Fold change /veh ABCC12 (11746883_a_at) / RFU TMEM136 (11760407_x_at) / Fold change /veh TMEM136 (11760407_x_at) / RFU CLDN22 /// WWC2 (11732394_at) / Fold change /veh CLDN22 /// WWC2 (11732394_at) / RFU HLA-DPB1 (11760878_x_at) / Fold change /veh HLA-DPB1 (11760878_x_at) / RFU SPINT1 (11716480_a_at) / Fold change /veh SPINT1 (11716480_a_at) / RFU GAP43 (11754022_s_at) / Fold change /veh GAP43 (11754022_s_at) / RFU A4GNT (11735810_at) / Fold change /veh A4GNT (11735810_at) / RFU PRB3 (11715151_x_at) / Fold change /veh PRB3 (11715151_x_at) / RFU TUBB4B (11761932_at) / Fold change /veh TUBB4B (11761932_at) / RFU CAPN14 (11732068_a_at) / Fold change /veh CAPN14 (11732068_a_at) / RFU TMCC2 (11721928_a_at) / Fold change /veh TMCC2 (11721928_a_at) / RFU IRGQ (11745062_a_at) / Fold change /veh IRGQ (11745062_a_at) / RFU FAM174B (11720279_a_at) / Fold change /veh FAM174B (11720279_a_at) / RFU TMPRSS4 (11748680_a_at) / Fold change /veh TMPRSS4 (11748680_a_at) / RFU FAM212B (11763350_a_at) / Fold change /veh FAM212B (11763350_a_at) / RFU PLEKHG5 (11743358_a_at) / Fold change /veh PLEKHG5 (11743358_a_at) / RFU ZSCAN30 (11745921_a_at) / Fold change /veh ZSCAN30 (11745921_a_at) / RFU CMKLR1 (11741424_a_at) / Fold change /veh CMKLR1 (11741424_a_at) / RFU LOC101060620 /// MAPK8IP1 (11723275_at) / Fold change /veh LOC101060620 /// MAPK8IP1 (11723275_at) / RFU SPTSSB (11747773_x_at) / Fold change /veh SPTSSB (11747773_x_at) / RFU PRSS12 (11739890_at) / Fold change /veh PRSS12 (11739890_at) / RFU BIN1 (11741810_x_at) / Fold change /veh BIN1 (11741810_x_at) / RFU WNT11 (11732464_a_at) / Fold change /veh WNT11 (11732464_a_at) / RFU C10orf10 (11716521_a_at) / Fold change /veh C10orf10 (11716521_a_at) / RFU C5orf56 (11738089_at) / Fold change /veh C5orf56 (11738089_at) / RFU CYB561 (11721691_x_at) / Fold change /veh CYB561 (11721691_x_at) / RFU ANKRD19P (11752326_a_at) / Fold change /veh ANKRD19P (11752326_a_at) / RFU OR2T12 /// OR2T33 /// OR2T8 (11738714_s_at) / Fold change /veh OR2T12 /// OR2T33 /// OR2T8 (11738714_s_at) / RFU VCAN (11748164_a_at) / Fold change /veh VCAN (11748164_a_at) / RFU JSRP1 (11732532_at) / Fold change /veh JSRP1 (11732532_at) / RFU KRTAP10-11 (11738290_x_at) / Fold change /veh KRTAP10-11 (11738290_x_at) / RFU MYO3A (11730013_a_at) / Fold change /veh MYO3A (11730013_a_at) / RFU EBF3 (11725865_a_at) / Fold change /veh EBF3 (11725865_a_at) / RFU CAMK2N1 (11719241_x_at) / Fold change /veh CAMK2N1 (11719241_x_at) / RFU C5orf56 (11738088_a_at) / Fold change /veh C5orf56 (11738088_a_at) / RFU OLFML3 (11715873_a_at) / Fold change /veh OLFML3 (11715873_a_at) / RFU LOC100653217 /// NTM (11731650_a_at) / Fold change /veh LOC100653217 /// NTM (11731650_a_at) / RFU MAPK11 (11762145_a_at) / Fold change /veh MAPK11 (11762145_a_at) / RFU FIZ1 (11724087_x_at) / Fold change /veh FIZ1 (11724087_x_at) / RFU OASL (11726364_x_at) / Fold change /veh OASL (11726364_x_at) / RFU SOX15 (11748057_x_at) / Fold change /veh SOX15 (11748057_x_at) / RFU CD79A (11719716_a_at) / Fold change /veh CD79A (11719716_a_at) / RFU HIST1H1D (11736915_at) / Fold change /veh HIST1H1D (11736915_at) / RFU CASKIN2 (11723855_a_at) / Fold change /veh CASKIN2 (11723855_a_at) / RFU LOC730098 (11760151_x_at) / Fold change /veh LOC730098 (11760151_x_at) / RFU OR4N2 (11742367_at) / Fold change /veh OR4N2 (11742367_at) / RFU PRRT2 (11749266_a_at) / Fold change /veh PRRT2 (11749266_a_at) / RFU SNX32 (11753110_a_at) / Fold change /veh SNX32 (11753110_a_at) / RFU CDHR5 (11726645_a_at) / Fold change /veh CDHR5 (11726645_a_at) / RFU RCAN1 (11760418_a_at) / Fold change /veh RCAN1 (11760418_a_at) / RFU FAM167A (11723789_a_at) / Fold change /veh FAM167A (11723789_a_at) / RFU FAM26E (11764081_at) / Fold change /veh FAM26E (11764081_at) / RFU ISYNA1 (11749810_s_at) / Fold change /veh ISYNA1 (11749810_s_at) / RFU ACY1 (11761880_at) / Fold change /veh ACY1 (11761880_at) / RFU 11764098_at / Fold change /veh 11764098_at / RFU SAMD14 (11745864_x_at) / Fold change /veh SAMD14 (11745864_x_at) / RFU NPB (11741838_a_at) / Fold change /veh NPB (11741838_a_at) / RFU TMPRSS6 (11731388_a_at) / Fold change /veh TMPRSS6 (11731388_a_at) / RFU KRTAP10-2 (11738614_at) / Fold change /veh KRTAP10-2 (11738614_at) / RFU ARHGAP8 /// PRR5-ARHGAP8 (11727945_x_at) / Fold change /veh ARHGAP8 /// PRR5-ARHGAP8 (11727945_x_at) / RFU KRTAP5-7 /// NADSYN1 (11734609_at) / Fold change /veh KRTAP5-7 /// NADSYN1 (11734609_at) / RFU RASL12 (11751679_a_at) / Fold change /veh RASL12 (11751679_a_at) / RFU CDKN2B (11736163_a_at) / Fold change /veh CDKN2B (11736163_a_at) / RFU PRF1 (11729649_at) / Fold change /veh PRF1 (11729649_at) / RFU, ZNF638 /// ZNF638-IT1 / Fold change vs veh, ZNF638 /// ZNF638-IT1 / RFU, PANK3 / Fold change vs veh, PANK3 / RFU, SH3YL1 / Fold change vs veh, SH3YL1 / RFU, ZEB2 / Fold change vs veh, ZEB2 / RFU, NRIP1 / Fold change vs veh, NRIP1 / RFU, PTTG1IP / Fold change vs veh, PTTG1IP / RFU, CAPN2 / Fold change vs veh, CAPN2 / RFU, MED14 / Fold change vs veh, MED14 / RFU, SNORA58 / Fold change vs veh, SNORA58 / RFU, C1orf63 / Fold change vs veh, C1orf63 / RFU, LRRFIP1 / Fold change vs veh, LRRFIP1 / RFU, NDUFAF7 / Fold change vs veh, NDUFAF7 / RFU, SLC12A2 / Fold change vs veh, SLC12A2 / RFU, IBTK / Fold change vs veh, IBTK / RFU, ESF1 / Fold change vs veh, ESF1 / Fold change vs veh, TMEM50B / RFU, TAOK1 / Fold change vs veh, TAOK1 / RFU, ACBD3 / Fold change vs veh, ACBD3 / RFU, TMA16 / Fold change vs veh, TMA16 / RFU, RWDD3 / Fold change vs veh, RWDD3 / RFU, BCAT1 / Fold change vs veh, BCAT1 / RFU, EDEM3 / Fold change vs veh, EDEM3 / RFU, TMEM33 / Fold change vs veh, TMEM33 / RFU, WDR75 / Fold change vs veh, WDR75 / RFU, AHCTF1 / Fold change vs veh, AHCTF1 / RFU, TFRC / Fold change vs veh, TFRC / RFU, ZDHHC17 / Fold change vs veh, ZDHHC17 / RFU, NOM1 / Fold change vs veh, NOM1 / RFU, ARL8B / Fold change vs veh, ARL8B / RFU, ZBTB11 / Fold change vs veh, ZBTB11 / RFU, TAMM41 / Fold change vs veh, TAMM41 / RFU, KIAA1704 /// LOC100996395 / Fold change vs veh, KIAA1704 /// LOC100996395 / RFU, ING1 / Fold change vs veh, ING1 / RFU, TRMT61B / Fold change vs veh, TRMT61B / RFU, FUBP3 / Fold change vs veh, FUBP3 / RFU, TP53 / Fold change vs veh, TP53 / RFU, TNKS2 / Fold change vs veh, TNKS2 / RFU, ZFP14 / Fold change vs veh, ZFP14 / RFU, ACTR2 / Fold change vs veh, ACTR2 / RFU, PPP3R1 / Fold change vs veh, PPP3R1 / RFU, PIK3R1 / Fold change vs veh, PIK3R1 / RFU, HNRNPA1 / Fold change vs veh, HNRNPA1 / RFU, RNF170 / Fold change vs veh, RNF170 / RFU, ZNF28 / Fold change vs veh, ZNF28 / RFU, RNGTT / Fold change vs veh, RNGTT / RFU, OGT / Fold change vs veh, OGT / RFU, BRD1 / Fold change vs veh, BRD1 / RFU, MARS / Fold change vs veh, MARS / RFU, ZNF655 / Fold change vs veh, ZNF655 / RFU, FAHD1 / Fold change vs veh, FAHD1 / RFU, BDP1 / Fold change vs veh, BDP1 / RFU, LRRCC1 / Fold change vs veh, LRRCC1 / RFU, ARID1A / Fold change vs veh, ARID1A / RFU, ZNF146 / Fold change vs veh, ZNF146 / RFU, ZNF330 / Fold change vs veh, ZNF330 / RFU, GPN3 / Fold change vs veh, GPN3 / RFU, C9orf123 / Fold change vs veh, C9orf123 / RFU, N4BP2L2 / Fold change vs veh, N4BP2L2 / RFU, ARFIP1 / Fold change vs veh, ARFIP1 / RFU, FAM179B / Fold change vs veh, FAM179B / RFU, BCL10 / Fold change vs veh, BCL10 / RFU, UHRF1BP1L / Fold change vs veh, UHRF1BP1L / RFU, BET1 / Fold change vs veh, BET1 / RFU, CNOT2 / Fold change vs veh, CNOT2 / RFU, ZNF268 / Fold change vs veh, ZNF268 / Fold change vs veh, ZNF507 / RFU, DGCR2 / Fold change vs veh, DGCR2 / RFU, WDSUB1 / Fold change vs veh, WDSUB1 / Fold change vs veh, HSP90B1 /// MIR3652 / RFU, ADSS / Fold change vs veh, ADSS / RFU, GK / Fold change vs veh, GK / RFU, ZNF148 / Fold change vs veh, ZNF148 / RFU, TAF9 / Fold change vs veh, TAF9 / RFU, SLC1A5 / Fold change vs veh, SLC1A5 / RFU, SLMO2 / Fold change vs veh, SLMO2 / RFU, ABCC4 / Fold change vs veh, ABCC4 / RFU, LOC101060439 /// RAP1B / Fold change vs veh, LOC101060439 /// RAP1B / RFU, RFX7 / Fold change vs veh, RFX7 / RFU, GTPBP10 / Fold change vs veh, GTPBP10 / RFU, CNEP1R1 / Fold change vs veh, CNEP1R1 / RFU, BIVM-ERCC5 /// ERCC5 / Fold change vs veh, BIVM-ERCC5 /// ERCC5 / RFU, ILF3 / Fold change vs veh, ILF3 / RFU 11762660_at / Fold change /veh 11762660_at / RFU VCAN (11757783_s_at) / Fold change /veh VCAN (11757783_s_at) / RFU DDX43 (11728927_at) / Fold change /veh DDX43 (11728927_at) / RFU KRT8 (11758188_x_at) / Fold change /veh KRT8 (11758188_x_at) / RFU NKD1 (11759106_at) / Fold change /veh NKD1 (11759106_at) / RFU SRD5A1 (11742802_a_at) / Fold change /veh SRD5A1 (11742802_a_at) / RFU TPSAB1 /// TPSB2 (11721975_s_at) / Fold change /veh TPSAB1 /// TPSB2 (11721975_s_at) / RFU GSTM3 (11746129_a_at) / Fold change /veh GSTM3 (11746129_a_at) / RFU IL23R (11737362_x_at) / Fold change /veh IL23R (11737362_x_at) / RFU TMEM51 (11727254_a_at) / Fold change /veh TMEM51 (11727254_a_at) / RFU PIWIL2 (11732686_x_at) / Fold change /veh PIWIL2 (11732686_x_at) / RFU ORM1 (11744905_x_at) / Fold change /veh ORM1 (11744905_x_at) / RFU CCDC152 (11743942_at) / Fold change /veh CCDC152 (11743942_at) / RFU ECM1 (11717891_a_at) / Fold change /veh ECM1 (11717891_a_at) / RFU IL23R (11748794_a_at) / Fold change /veh IL23R (11748794_a_at) / RFU TNFAIP8L3 (11732012_x_at) / Fold change /veh TNFAIP8L3 (11732012_x_at) / RFU MBOAT4 (11741988_at) / Fold change /veh MBOAT4 (11741988_at) / RFU 11764193_at / Fold change /veh 11764193_at / RFU TMEM53 (11763286_at) / Fold change /veh TMEM53 (11763286_at) / RFU MAGEB2 (11727129_at) / Fold change /veh MAGEB2 (11727129_at) / RFU TMEM200A (11744735_a_at) / Fold change /veh TMEM200A (11744735_a_at) / RFU CCDC152 (11751479_a_at) / Fold change /veh CCDC152 (11751479_a_at) / RFU FAM211A (11726209_a_at) / Fold change /veh FAM211A (11726209_a_at) / RFU RGS16 (11746705_a_at) / Fold change /veh RGS16 (11746705_a_at) / RFU VCAN (11755009_s_at) / Fold change /veh VCAN (11755009_s_at) / RFU RHOB (11743442_s_at) / Fold change /veh RHOB (11743442_s_at) / RFU RGS16 (11720943_a_at) / Fold change /veh RGS16 (11720943_a_at) / RFU RGS16 (11720944_at) / Fold change /veh RGS16 (11720944_at) / RFU, VPS4B / Fold change vs veh, VPS4B / RFU, CREB1 / Fold change vs veh, CREB1 / RFU, DNAJC13 / Fold change vs veh, DNAJC13 / RFU, GNAQ / Fold change vs veh, GNAQ / RFU, CDK5R1 / Fold change vs veh, CDK5R1 / RFU, ZRANB3 / Fold change vs veh, ZRANB3 / RFU, CUL4A / Fold change vs veh, CUL4A / RFU, CCNY / Fold change vs veh, CCNY / RFU, UFL1 / Fold change vs veh, UFL1 / RFU, COG3 / Fold change vs veh, COG3 / RFU, DIAPH2 / Fold change vs veh, DIAPH2 / RFU, SKA2 / Fold change vs veh, SKA2 / RFU, AFF3 / Fold change vs veh, AFF3 / RFU, LMF1 / Fold change vs veh, LMF1 / RFU, IPO11 / Fold change vs veh, IPO11 / RFU, DFFB / Fold change vs veh, DFFB / RFU, FOXP1 / Fold change vs veh, FOXP1 / RFU, CARD8 / Fold change vs veh, CARD8 / RFU, STRN3 / Fold change vs veh, STRN3 / RFU, ADK / Fold change vs veh, ADK / RFU, RASSF2 / Fold change vs veh, RASSF2 / RFU, WIPF1 / Fold change vs veh, WIPF1 / RFU, LARP1B / Fold change vs veh, LARP1B / RFU, RASA1 / Fold change vs veh, RASA1 / RFU, RB1 / Fold change vs veh, RB1 / RFU, PPFIA1 / Fold change vs veh, PPFIA1 / RFU, MAT2A / Fold change vs veh, MAT2A / RFU, CCT5 / Fold change vs veh, CCT5 / RFU, WDR92 / Fold change vs veh, WDR92 / RFU, CUX1 / Fold change vs veh, CUX1 / RFU, TTC7A / Fold change vs veh, TTC7A / RFU, TMEM135 / Fold change vs veh, TMEM135 / RFU, DEPTOR / Fold change vs veh, DEPTOR / RFU, CPM / Fold change vs veh, CPM / RFU, DNAJB6 / Fold change vs veh, DNAJB6 / RFU, CACNA2D3 / Fold change vs veh, CACNA2D3 / RFU, DTX4 / Fold change vs veh, DTX4 / RFU, TFCP2 / Fold change vs veh, TFCP2 / RFU, GMCL1 /// GMCL1P1 / Fold change vs veh, GMCL1 /// GMCL1P1 / RFU, AEBP2 / Fold change vs veh, AEBP2 / RFU, SNHG1 /// SNORD22 /// SNORD25 /// SNORD26 /// SNORD27 /// SNORD28 /// SNORD29 /// SNORD31 / Fold change vs veh, SNHG1 /// SNORD22 /// SNORD25 /// SNORD26 /// SNORD27 /// SNORD28 /// SNORD29 /// SNORD31 / Fold change (Aza/veh), C12orf56 (ProbeSet 11735607_a_at) / Fold change (ACY-1035/veh), C12orf56 (ProbeSet 11735607_a_at) / Fold change (Aza/veh), FGFR1OP (ProbeSet 11751329_s_at) / Fold change (ACY-1035/veh), FGFR1OP (ProbeSet 11751329_s_at) / Fold change (Aza/veh), VPS36 (ProbeSet 11739960_a_at) / Fold change (ACY-1035/veh), VPS36 (ProbeSet 11739960_a_at) / RFU SYPL1 (11715823_x_at) / Fold change /veh SYPL1 (11715823_x_at) / RFU IGFBP7 (11715501_s_at) / Fold change /veh IGFBP7 (11715501_s_at) / RFU REEP3 (11722064_at) / Fold change /veh REEP3 (11722064_at) / RFU IGLL1 (11728026_x_at) / Fold change /veh IGLL1 (11728026_x_at): dose or concentration left out as unconfirmed
Conditions: ProbeSet 11716999_a_at; LIST D

SMILES: Nc1ncn([C@@H]2O[C@H](CO)[C@@H](O)[C@H]2O)c(=O)n1 [azacitidine]
- Fold change vs veh, RASA1: 0.72
